In one assay the target is full-length human LSD1 (Homo sapiens (Human), UniProt O60341). Description: In vitro enzyme inhibition assay LSD-1 (TR-FRET). The class given is biochemical. How it is done: This assay determines the ability of a test compound to inhibit LSD1 demethylase activity.
The enzymatic assay of LSD1 activity is based on Time Resolved-Fluorescence Resonance Energy Transfer (TR-FRET) detection.
The ability of the compounds disclosed herein to inhibit LSD1 activity was quantified and the respective IC50 value was determined. Table 5 provides the IC50 values of various substituted heterocyclic compounds disclosed herein.
A general note: In TR-FRET formats the signal depends on donor and acceptor labels being close together.

For a further assay, the system named is THP-1 (AML) cells. The experiment in a line: LSD1 CD11b cellular assay (flow cytometry). The class given is cell-based. To be noted: Homo sapiens, 96 h; CD11b expression in THP-1 (AML) cells, flow cytometry, 4 days incubation; read-out: Cellular IC50. As for the experimental part: To analyze LSD1 inhibitor efficacy in cells, a CD11b flow cytometry assay was performed. LSD1 inhibition induces CD11b expression in THP-1 (AML) cells which can be measured by flow cytometry. […] LSD1 test compounds were serially diluted in DMSO. The dilutions were added to each well accordingly to a final concentration of 0.2% DMSO. The cells were incubated at 37° C. in 5% CO2 for 4 days. 250 μL of each well was transferred to a well in a 96 well round bottom plate. The plate was centrifuged at 1200 rpm at 4 degrees Celsius in a Beckman Coulter Alegra 6KR centrifuge for 5 min. The media was removed leaving the cells at the bottom of the wells. The cells were washed in 100 μL cold HBSS (Hank's Balanced Salt Solution) plus 2% BSA (Bovine Serum Albumin) solution and centrifuged at 1200 rpm at 4° C. for 5 min. The wash was removed. […] The cells were centrifuged and washed two times in 100 μl HBSS plus 2% BSA. After the final spin the cells were resuspended in 100 μL HBSS plus 2% BSA containing 1 μg/mL DAPI (4′,6-diamidino-2-phenylindole). The cells were then analyzed by flow cytometry in a BD FACSAria machine. Cells were analyzed for CD11b expression. The percent of CD11b expressing cells for each inhibitor concentration was used to determine an IC50 curve for each compound analyzed.
Background: Flow cytometry measures light scatter and fluorescence of single cells or particles in a stream.

The mark [1] stands for this setting: TR-FRET, 0.1 nM LSD1, 50 nM H3K4me1-biotin peptide, 2 μM FAD, pH7.3, read-out: LSD1 IC50.

Molecules are shown by their SMILES. Where two headings read alike, the source gives them in different places.

As for `Cc1ccc(-c2nc3ccn(CC4(F)CCNC4)c3cc2-c2ccc(C#N)cc2)cc1` (stereo not shown) [Example 9, 4-[1-[(3-fluoropyrrolidin-3-yl)methyl]-5-(4-methylphenyl)pyrrolo[3,2-b]pyridin-6-yl]benzonitrile], the concentration for half-maximal inhibition (IC50) (commonly the concentration at which inhibition is half-maximal) at full-length human LSD1 is under 100 nM; in the assay with THP-1 (AML) cells, 100 to 1000 nM.
`Cc1ccc(-c2nc3ccn(C[C@H]4CNCCO4)c3cc2-c2ccc(C#N)cc2)cc1` [Example 10, 4-[5-(4-methylphenyl)-1-[[(2R)-morpholin-2-yl]methyl]pyrrolo[3,2-b]pyridin-6-yl]benzonitrile]: the IC50 at full-length human LSD1 (setting [1]) is under 100 nM; in the assay on THP-1 (AML) cells it was 1000 to 10000 nM.
For the compound `N#Cc1ccc(-c2cc3c(ccn3C[C@H]3CNCCO3)nc2-c2ccc(F)cc2)cc1` [Example 11, 4-[5-(4-fluorophenyl)-1-[[(2R)-morpholin-2-yl]methyl]pyrrolo[3,2-b]pyridin-6-yl]benzonitrile], the IC50 on full-length human LSD1 (setting [1]) is under 100 nM; in the assay with THP-1 (AML) cells, 1000 to 10000 nM.
On to `Cc1ccc(-c2nc3ccn(CCCN)c3cc2-c2ccc(C#N)cc2)cc1` [Example 12], for which the figures for the half-maximal inhibitory concentration (IC50) at full-length human LSD1 (setting [1]) and in the assay on THP-1 (AML) cells were under 100 nM and 100 to 1000 nM, respectively.
For `Cc1ccc(-c2nc3cnn(CC4CCNC4)c3cc2-c2ccc(C#N)cc2)cc1` (stereo not shown) [Example 13] the same measures were under 100 nM and under 100 nM.
On to `Cc1ccc(-c2nc3cnn(CC4CCNCC4)c3cc2-c2ccc(C#N)cc2)cc1` [Example 14], for which the IC50 at full-length human LSD1 (setting [1]) and with THP-1 (AML) cells was under 100 nM in each case.
As to `Cc1ccc(-c2nc3cnn(C[C@H]4[C@@H]5CNC[C@@H]54)c3cc2-c2ccc(C#N)cc2)cc1` [Example 15, 4-[1-[[(1S,5R)-3-azabicyclo[3.1.0]hexan-6-yl]methyl]-5-(4-methylphenyl)pyrazolo[4,3-b]pyridin-6-yl]benzonitrile], the IC50 at full-length human LSD1 (setting [1]) and in the assay on THP-1 (AML) cells was under 100 nM in each case.
Regarding `Cc1ccc(-c2cnc(NC[C@H]3CCNC3)nc2-c2ccc(C#N)cc2)cc1` [Example 16, 4-[5-(4-methylphenyl)-2-{[(3S)-pyrrolidin-3-ylmethyl]amino}pyrimidin-4-yl]benzonitrile], the IC50 on full-length human LSD1 (setting [1]) and in the assay on THP-1 (AML) cells was under 100 nM each time.
`N#Cc1ccc(-c2nc(NC[C@H]3CCNC3)ncc2-c2ccc(F)cc2)cc1` [Example 18, 4-[5-(4-fluorophenyl)-2-{[(3S)-pyrrolidin-3-ylmethyl]amino}pyrimidin-4-yl]benzonitrile]: the IC50 at full-length human LSD1 (setting [1]) was under 100 nM; in the assay with THP-1 (AML) cells it was 100 to 1000 nM.
As to `N#Cc1ccc(-c2nc(NC[C@H]3CCNC3)ncc2-c2ccc(Cl)cc2)cc1` [Example 19, 4-[5-(4-chlorophenyl)-2-{[(3S)-pyrrolidin-3-ylmethyl]amino}pyrimidin-4-yl]benzonitrile], the IC50 was under 100 nM on full-length human LSD1 (setting [1]) and 100 to 1000 nM in the assay on THP-1 (AML) cells.
The corresponding values for `Cc1ccc(-c2cnc(OC[C@@H]3CCNC3)nc2-c2ccc(C#N)cc2)cc1` [Example 20, 4-[5-(4-methylphenyl)-2-[(3R)-pyrrolidin-3-ylmethoxy]pyrimidin-4-yl]benzonitrile] are under 100 nM and 100 to 1000 nM.
For `Cc1ccc(-c2cnc(N3C[C@H]4CNC[C@H]4C3)nc2-c2ccc(C#N)cc2)cc1` [Example 21, 4-{2-[(3aR,6aS)-octahydropyrrolo[3,4-c]pyrrol-2-yl]-5-(4-methylphenyl)pyrimidin-4-yl}benzonitrile], the IC50 at full-length human LSD1 (setting [1]) and with THP-1 (AML) cells was under 100 nM throughout.
With `Cc1ccc(-c2cnc(N3CCC4CNCC4C3)nc2-c2ccc(C#N)cc2)cc1` (stereo not shown) [Example 22, 4-[5-(4-methylphenyl)-2-{octahydro-1H-pyrrolo[3,4-c]pyridin-5-yl}pyrimidin-4-yl]benzonitrile], the IC50 on full-length human LSD1 (setting [1]) and in the assay on THP-1 (AML) cells was under 100 nM in each case.
As for `Cc1ccc(-c2cnc(N3CC[C@@H]4CNC[C@@H]4CC3)nc2-c2ccc(C#N)cc2)cc1` [Example 23, 4-{2-[(3aR,8aS)-decahydropyrro[3,4-d]azepin-6-yl]-5-(4-methylphenyl)pyrimidin-4-yl}benzonitrile], the IC50 on full-length human LSD1 (setting [1]) and in the assay on THP-1 (AML) cells was under 100 nM throughout.

Source of the values: patent US10131664B2 (Celgene Quanticel Research, Inc., priority 2013, dated 2018).
